# Source: publication PMC4643019, “Imaging Sites of Inhibition of Proteolysis in Pathomimetic Human Breast Cancer Cultures by Light-Activated Ruthenium Compound” (PLoS ONE, 2015)
# “Also recorded” adds a separate entry of the source. Read-outs that look alike come from different tables or passages of the source.
# Columns and labels:
# [1] = biological target: T1, CTSB activity in Hs578T cell lysates (Homo sapiens, UniProt P07858); experiment: Inhibition of cellular cathepsin B activity in Hs578T cell lysates (Z-Arg-Arg-AMC); format: biochemical; conditions: for IC50: Hs578T lysate
# T1 construct: endogenous in cells; host or cells: Hs578T (ATCC) cell lysate
# Method: (§1) TNBC cell lines were originally purchased from American Type Culture Collection (Rockville, MD, USA) and authenticated using the STR PowerPlex 16 system (Promega). Cells were cultured in basal medium supplemented with 10% fetal bovine serum (MDA-MB-231, DMEM; Hs578T, DMEM + 10 μg/ml bovine insulin). To prepare cell lysates, cells were grown on 100 mm dishes to ~80% confluency, washed twice with PBS (phosphate buffered saline), scraped and lysed in SME buffer (250 mM sucrose, 25 mM MES, 1 mM EDTA, pH 6.5, and 0.1% Triton X-100) and then sonicated on ice three times for 10 sec each. CTSB activity was measured as previously described. Briefly, 50 μl of cell lysate was incubated with 300 μl of activator buffer (5 mM EDTA, 10 mM DTT (pH 5.2) at 37°C during 15 min. The sample (1 μl) was added to 100 μl of the activator buffer containing cell lysate and the reaction mixtures were conducted during 45 min under dark (no irradiation) and light (irradiation at 250 W, 395–750 nm) conditions for 45 min with a tungsten halogen lamp and H2O filter on separate plates as described above. The experiments were carried out in triplicate (on 96-well flat bottom black plates) at pH 6.0.
# [2] = tested on: recombinant human CTSB expressed in baculovirus; set-up: method as in PMID 11741472; conditions: cited from earlier work
# Hs578T 3D MAME cultures [3] = experiment: Live-cell proteolysis assay (DQ-collagen IV) in 3D MAME cultures, Hs578T; format: cell-based, human
# Method: (§2) Proteolytic cleavage of DQ-collagen IV substrate (Invitrogen, Carlsbad, CA, USA) by live TNBC cells was imaged in real time and quantified as previously described. Briefly, glass coverslips were coated with 50 μl of 16.4 mg/ml Cultrex^TM containing 25 μg/ml DQ-collagen IV and incubated for 15 min at 37°C to solidify. TNBC cells (1.0 x 10^4) were seeded onto coated glass coverslips and incubated for 60 min. Medium containing 2% Cultrex^TM was added to the cells. The sample was added every 48 h. […] Where indicated, assays were performed in the presence of CA074 and CA074Me (5 μM each) (Peptides International, Louisville, KY, USA), compound 1 or compound 2. For experiments with the caged inhibitor, cells were exposed to dark (no irradiation) and light (irradiation at 250 W, 395–750 nm) conditions for 45 min with a tungsten halogen lamp and H2O filter on separate plates. After 4 days of culture, optical sections through the entire depth of the 3D structures were acquired on a confocal microscope and, reconstructed in 3D using Volocity software. At the time of imaging cells were stained with CellTracker Orange and nuclei with Hoechst 33342. Volocity software was used to determine cellular boundaries in each confocal slice and generate a “cytoplasmic mask” as well as to count nuclei. The intensity of DQ-collagen IV degradation fragments per cell was quantified in the entire 3D volume. Degradation fragments were segmented into those present inside or surrounding the cells by using image arithmetic as we have previously described in detail.
# [4] = biological target: T2, CTSB activity in MDA-MB-231 cell lysates (Homo sapiens, UniProt P07858); experiment: Inhibition of cellular cathepsin B activity in MDA-MB-231 cell lysates (Z-Arg-Arg-AMC); format: biochemical; conditions: for IC50: MDA-MB-231 lysate
# T2 construct: endogenous in cells; host or cells: MDA-MB-231 (ATCC) cell lysate
# Method: as §1
# [5] = tested on: MDA-MB-231 3D MAME cultures; experiment: Live-cell proteolysis assay (DQ-collagen IV) in 3D MAME cultures, MDA-MB-231; format: cell-based, human
# Method: as §2
# Solubility (statement) = format: physicochemical
# [6] = biological target: T3, CTSB purified from human liver (Homo sapiens, UniProt P07858); experiment: Cathepsin B activity assay with purified enzyme (Z-Arg-Arg-AMC); format: biochemical; conditions: for IC50: CTSB 10 nM, substrate 150 μM
# T3 construct: CTSB purified from human liver was purchased from Athens Research & Technology; purchased Athens Research & Technology (Athens, GA, USA); host or cells: human liver (tissue-purified)
# Method: CTSB purified from human liver was purchased from Athens Research & Technology (Athens, GA, USA). The enzyme activity was determined from kinetic measurements performed by fluorimetric detection of the hydrolysis product AMC at 37°C for 30 min at one-minute intervals using a Tecan SpectraFluor Plus plate-reader. The excitation and emission wavelengths were 360 and 485 nm, respectively. The fluorescent substrate Z-Arg-Arg-AMC (Bachem, Torrance, CA, USA) was used at a final concentration of 150 μM.
# The enzyme was activated for 15 minutes with activator buffer (100 μl) containing 5 mM EDTA, 10 mM DTT (pH 5.2) at 37°C. The sample (1 μl) was added and the reaction mixtures were conducted during 45 min under dark (no irradiation) and light (irradiation at 250 W, 395–750 nm) conditions with a tungsten halogen lamp and H2O filter on separate plates. For the experiments under dark conditions, room lights were off and in addition the plate was covered with aluminum foil (light protection); the other plate was exposed to visible light for the same time period. The irradiation wavelength was selected by placing a 395 long-pass filter between the lamp and the sample, along with a 10 cm water cell to absorb infrared light. After photolysis, the reaction was initiated by addition of 200 μl of assay buffer (0.6 mM CaCl2, 0.6 mM MgCl2, 25 mM piperazin-N-N‘-bis[2-ethanosulfonic acid] (disodium salt)), pH 7.3 containing 150 μM Z-Arg-Arg-AMC substrate solution. Enzyme concentration was 10 nM. The experiments were carried out in triplicate in 96-well flat bottom black plates at pH 6.0. Enzyme activities are expressed as a percentage, with 100% equal to activity in the absence of inhibitor. IC50 values were determined by plotting percent activity vs. log (inhibitor concentration).
# Hs578T 3D MAME cultures [7] = experiment: Cell viability (Live/Dead) assay, Hs578T 3D MAME cultures; format: cell-based; conditions: in the dark or the light, 4 days
# Method: (§3) Three-dimensional cultures of TNBC cells were established, grown and treated with compound 2 as described above. After 4 days, a cell viability assay was performed to assess the cytotoxic effects of compound 2. The assay has two components: Calcein AM that fluoresces green when cleaved by intracellular esterases thereby labeling live cells and Ethidium Homodimer-1 that fluoresces red when incorporated in the DNA of dead cells. A solution of 4 μM Ethidium Homodimer-1 and 2 μM Calcein AM was prepared in sterile PBS. Cultures were incubated for 30 minutes at 37°C, washed once with warm PBS and replenished with warm MEGM media for live cell imaging. The samples were then imaged at 10X magnification using a Zeiss 510 META confocal microscope. Tiled 16-panel images and z-stacks through the depth of structures were captured. The images were processed to show top views using Volocity software.
# [8] = tested on: MDA-MB-231 3D MAME cultures; experiment: Cell viability (Live/Dead) assay, MDA-MB-231 3D MAME cultures; format: cell-based; conditions: in the dark or the light, 4 days
# Method: as §3
# [9] = Stability in the dark, determined spectrophotometrically (ln A vs. t); format: physicochemical
# Source text: This was expected because cis-[Ru(bpy)2Cl2] was used as a racemic mixture of Δ- and Λ stereoisomers. […] The electronic absorption spectrum of 2 is highly consistent with other dications of the general formula cis-[Ru(bpy)2(RCN)2]^2+, where RCN is MeCN,^130 5-cyanouracil,^124 and protease inhibitors structurally related to 1 [17–18]. Data for 2 in water containing 2% acetone show a maximum at 420 nm (ε = 10,360 M^-1cm^-1) assigned to a singlet metal-to-ligand charge transfer (^1MLCT) transition.
# [10] = Photoinduced ligand exchange quantum yield; format: physicochemical
# Method: Electronic absorption spectra were measured with a Hewlett-Packard 8453 diode array spectrophotometer. The ligand exchange quantum yield experiments were performed with a 150 W Xe arc lamp (USHIO) in a Milliarc lamp housing unit with an LPS-220 power supply and an LPS-221 igniter (PTI). A bandpass filter (Thorlabs) and long-pass filter (CVI Melles Griot) were used to select the appropriate irradiation wavelengths.
# The photolysis experiments were performed in H2O with 2% acetone and in an acetone solution containing 0.25 M tetrabutylammonium, and the chloride (TBACl) in a 1 × 1 cm quartz cuvette, and the irradiation wavelengths were selected with a 395 nm long-pass filter. The photon flux of the arc lamp with a 335 nm long-pass filter and a 400 nm bandpass filter was determined to be 4.30 ± 0.25 × 10^−8 mol photons/min by ferrioxalate actinometry as previously described in detail. The quantum yields (Φ) for ligand dissociation of 2 were determined in each of the solvent systems in a 1 × 1 cm quartz cuvette. The decrease in the MLCT absorption maximum of the reactant with ε = 10,360 M^–1cm^–1 at 412 nm as a function of time was monitored at early irradiation times to calculate the rate of moles of reactant converted to intermediate, I. The increase of the MLCT absorption maximum of the product at 490 nm (ε = 9,300 M^–1cm^–1) was monitored at irradiation times after the formation of the intermediate to determine the rate of moles of product P formed. These rates along with the photon flux were used to calculate the quantum yields for the first and second steps, ΦR→I and ΦI→P, respectively.
# cathepsin L = tested on: cathepsin L; set-up: method as in PMID 12437121; conditions: cited from earlier work
# [11] = not told; cited from earlier work
# [12] = uncaged compound 1, read-out: IC50
# [13] = dark (no irradiation) 45 min, read-out: IC50 (dark)
# [14] = light λirr = 395–750 nm, 45 min, read-out: IC50 (light)
# [15] = acetone solution containing 0.25 M TBACl
# [16] = water (2% acetone), λirr = 400 nm
structure (smiles),measurement,setting,value
"Cc1cccc(C[C@H](NC(=O)c2ccc(Cl)c(Cl)c2)C(=O)NCC#N)c1 [compound 1, (S)-3,4-dichloro-N-(1-((cyanomethyl)amino)-1-oxo-3-(m-tolyl)propan-2-yl)benzamide]",IC50,[1]; [12],910 nM
same,inhibition of recombinant human CTSB,[2],"potent, selective and reversible inhibitor"
same,total degradation of DQ-collagen IV,"Hs578T 3D MAME cultures [3]; 4 days of culture, concentration of 1 not given",significantly less degradation of DQ-collagen IV; also recorded: significant reductions
same,pericellular proteolysis (DQ-collagen IV),"Hs578T 3D MAME cultures [3]; 4 days, concentration of 1 not given",significant reductions
same,IC50,[4]; [12],1540 nM
same,total degradation of DQ-collagen IV,"[5]; MDA-MB-231, 4 days of culture, concentration of 1 not given",significantly less degradation of DQ-collagen IV; also recorded: significant reductions
same,pericellular proteolysis (DQ-collagen IV),"[5]; MDA-MB-231, 4 days, concentration of 1 not given",significant reductions
same,solubility in H2O,Solubility (statement),low solubility
same,IC50,[6]; [12],330 nM
"Cc1cccc(CC(NC(=O)c2ccc(Cl)c(Cl)c2)C(=O)NCC#N)c1.Cc1cccc(CC(NC(=O)c2ccc(Cl)c(Cl)c2)C(=O)NCC#N)c1.F[B-](F)(F)F.F[B-](F)(F)F.[Ru+2].c1ccc(-c2ccccn2)nc1.c1ccc(-c2ccccn2)nc1 (mixture of isomers) [compound 2, Δ- and Λ-cis [Ru(bpy)2(1)2](BF4)2]",dark/light ratio,[1]; Hs578T cell lysates,12.6
same,IC50,[1]; [13],11200 nM
same,IC50,[1]; [14],890 nM
same,toxicity by cell viability assay,Hs578T 3D MAME cultures [7],did not observe any toxicity
same,toxicity by cell viability assay,[8],did not observe any toxicity
same,degradation of DQ-collagen IV,"Hs578T 3D MAME cultures [3]; 1 μM, exposed to visible light, 4 days",significantly reduced
same,inhibition of proteolysis in the dark,"Hs578T 3D MAME cultures [3]; higher concentrations than 1 μM, dark (data not shown)",significant inhibition of proteolysis
same,dark/light ratio,[4]; MDA-MB-231 cell lysates,79.6
same,IC50,[4]; [13],126000 nM
same,IC50,[4]; [14],1580 nM
same,"kobs, rate constant for decomposition in the dark","[9]; DMSO, 293 ± 2 K",1.6 ± 0.1 × 10^−7 s^-1
same,"kobs, rate constant for decomposition in the dark","[9]; phosphate buffered saline, pH 6.5, 293 ± 2 K",1.2 ± 0.1 × 10^−6 s^-1
same,degradation of DQ-collagen IV,"[5]; MDA-MB-231, 1 μM, exposed to visible light, 4 days",significantly reduced
same,inhibition of proteolysis in the dark,"[5]; MDA-MB-231, higher concentrations than 1 μM, dark (data not shown)",significant inhibition of proteolysis
same,"quantum yield of ligand exchange, first step ΦR→I",[10]; [15],0.056(9)
same,"quantum yield of ligand exchange, second step ΦI→P",[10]; [15],0.032
same,"quantum yield of ligand exchange, first step ΦR→I",[10]; [16],0.026(4)
same,"quantum yield of ligand exchange, second step ΦI→P",[10]; [16],0.0045(9)
same,IC50,[6]; [13],3400 nM
same,IC50,"[6]; light λirr = 395–750 nm, 45 min, 250 W, read-out: IC50 (light)",280 nM
same,dark/light IC50 ratio,[6]; purified CTSB,12
"CC#N.CC#N.F[P-](F)(F)(F)(F)F.F[P-](F)(F)(F)(F)F.[Ru+2].c1ccc(-c2ccccn2)nc1.c1ccc(-c2ccccn2)nc1 [compound 3, cis-[Ru(bpy)2(MeCN)2](PF6)2, reference compound]",inhibition of proteolysis (DQ-collagen IV),"Hs578T 3D MAME cultures [3]; 1 μM, light vs. dark conditions, 4 days",did not inhibit proteolysis
same,inhibition of proteolysis (DQ-collagen IV),"[5]; MDA-MB-231, 1 μM, light vs. dark conditions, 4 days",did not inhibit proteolysis
CCCNC(=O)[C@H]1O[C@@H]1C(=O)N[C@H](C(=O)N1CCC[C@H]1C(=O)O)[C@@H](C)CC [CA074],inhibition of cathepsin L,cathepsin L,not
same,cell permeability,[11],non-cell permeable
CCCNC(=O)[C@H]1O[C@@H]1C(=O)N[C@H](C(=O)N1CCC[C@H]1C(=O)OC)[C@@H](C)CC [CA074Me],inhibition of cathepsin L,cathepsin L,inhibits
same,cell permeability,[11],cell permeable
